Values quoted from earlier work in article PMC9475419 (RSC Advances, 2022).
“Also recorded” adds a separate entry of the source.

Legend:
[1] = cited from earlier work
[2] = 15 Pep1 per AuNP (3.6 nm); cited from earlier work

Which results are given for CGSTIYASYYESGHGC [Pep1]?
structure and function of free peptide [1]: unstructured and non-functional; suppression of non-specific binding of AuNPs by Pep1 [2]: enough to suppress the non-specific binding surface of AuNPs; also recorded: could sufficiently suppress the non-specific binding of AuNPs
